Assay results reported in patent US9730906B2, “α-derivatives of cis-monounsaturated fatty acids for use as medicines” (UNIVERSITAT DE LES ILLES BALEARS, priority 2008, dated 2017).

Key:
[1] = target: T1, cyclooxygenases-1 (COX-1) (Homo sapiens, UniProt P23219); test: COX-1 activity in U937 differentiated monocytes (Cayman COX-1 inhibitor screening system); format: cell-based; details: 250 μM, 6 hours; compared with fatty acids not of Formula I, p<0.05
T1 construct: endogenous in cells; host or cells: U937 differentiated monocytes
Experimental: FIG. 19A. Effect of various fatty acids in the inhibition of the activity of cyclooxygenases-1 (COX-1) (Cayman COX-1 inhibitor screening system). […] Cell cultures (U937 differentiated monocytes) were treated with the fatty acids of the invention (250 μM, 6 hours).
(§1) In an additional study on the release of various proinflammatory cytokines (IL-1b, IL-6, IL-8, IL-10) and TNF-α in U937 monocytes stimulated with bacterial lipopolysaccharide (LPS), a marked reduction in the levels of these molecules was observed after treatments with OHHD at a concentration of 250 μM and 72 h incubation (Table 4). The effect of the α-derivatives of cis-monounsaturated fatty acids (250 μM, 6 h) on the activity and expression of the COX-1 and COX-2 cyclooxygenases was investigated in the same system.

[2] = tested on: A549 cells of human lung adenocarcinoma; test: Prevention of tumour development in nude mice injected with A549 cells; format: in vivo; details: 400 mg/kg per day oral, 2 weeks before and one month after A549 injection, compared with fatty acids not of Formula I, p<0.05
Source text: FIG. 2. Preventative effect of various fatty acids against tumour development. […] Animals received treatment before injection of tumour cells and the treatment was subsequently maintained. Animals of the control group were not treated and the volume of their tumours was taken as the reference value (100%).
To determine whether the fatty acids of the invention have applications in the prevention of the development of tumour processes, an animal cancer model was used. This model consisted of immune-deprived animals ([Crl:Nu(Ico)-Fox 1] nude mice in which non-microcytic human lung cancer cells were injected (5×10^6 A549 cells per animal). The control group (infected with cancer cells but untreated) started to develop tumours that were visible after a few days. The sizes of the tumours were measured for the first time at 10 days after implanting the tumour and measurements continued for up to 31 days after the implantation with a digital calliper. The volume of the tumours was calculated with the following equation: v=w^2×l/2 where v is the volume of the tumour, w is its width and l is the length. Preventative treatments against development of the cancer were applied. To carry out these treatments, 400 mg/kg were administered per day for 2 weeks before the injection of tumour cells. This treatment was continued for one month after the implantation of the tumour cells and the volume of the tumours in the animals was measured. Each experimental group was composed of 8 animals. Oral administration of α-derivatives of cis-monounsaturated fatty acids prevented cancer development (A549 cells of human lung adenocarcinoma) (FIG. 2). […] Therefore it was concluded that the introduction of a double bond in the cis configuration in the structure of the fatty acid is a critical factor in the prevention and treatment by fatty acids of cancer development.

[3] = Rat obesity induced by cafeteria diet, preventative pre-treatment (Table 3); format: in vivo, Wistar Kyoto rats; details: 300 mg/kg oral, after two weeks on cafeteria diet; obese control 308 ± 17, lean control 280 ± 16; * lower than obese controls, ‡ indistinguishable
Method in brief: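 Groups of 6 female Wistar Kyoto rats (250-300 g) received oral pre-treatment with 300 mg/kg fatty acid or vehicle during 2 weeks on standard diet. Dosing continued for two further weeks on cafeteria diet, with lean and obese vehicle controls. Body-weight gain was the read-out.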

cyclooxygenase-2 (COX-2) = test: Cellular concentration of COX-2 in U937 differentiated monocytes (immunoblot); format: cell-based, human; details: 250 μM, 6 hours; compared with fatty acids not of Formula I, p<0.05
Experimental: FIG. 19B. Effect of various fatty acids in the inhibition (concentration of protein) of cyclooxygenase-2 (immunoblot of COX-2). […] Cell cultures (U937 differentiated monocytes) were treated with the fatty acids of the invention (250 μM, 6 hours).
as §1

[4] = tested on: SF767 human brain cancer cells; test: Tumour volume in nude mice infected with SF767 human brain cancer cells; format: in vivo; details: 600 mg/kg daily for 50 days; for volume of tumours (percent compared to control): p<0.001 vs control
Experimental: FIG. 6A. Effect of different salts of OHOD on human lung cancer in an animal cancer model. The volume of tumours in nude mice infected with SF767 human brain cancer cells (expressed as a percent compared to control) receiving various treatments. The animals received a vehicle (water: Control), 600 mg/kg of OHOD in the form of free fatty acid (OHOD), 600 mg/kg of sodium salt of OHOD (Na-OHOD) or 600 mg/kg of ammonium salt of OHOD (NH3OHOD) daily for 50 days.
FIG. 6B. Effect of different salts of OHOD on human lung cancer in an animal cancer model. The effect of different doses of sodium salt of OHOD (Na-OHOD) are shown on tumour volumes in mice infected with SF767 cells and treated with vehicle (control, 0 mg/kg), 100 mg/kg (100), 200 mg/kg (200), 400 mg/kg (400) and 600 mg/kg (600) for 50 days. * p<0.05; ***p<0.001.
One important characteristic of the molecules covered in the present invention is that they can form various types of salts. FIG. 6A and Table 5 show the therapeutic effects of various α-derivatives of cis-monounsaturated fatty acids and their salts. […] The specificity of this effect is determined by the relation between the dose and the effect these molecules have on the volume of human tumours implanted in animals (FIG. 6B).

T1 sequence (P23219 24-599): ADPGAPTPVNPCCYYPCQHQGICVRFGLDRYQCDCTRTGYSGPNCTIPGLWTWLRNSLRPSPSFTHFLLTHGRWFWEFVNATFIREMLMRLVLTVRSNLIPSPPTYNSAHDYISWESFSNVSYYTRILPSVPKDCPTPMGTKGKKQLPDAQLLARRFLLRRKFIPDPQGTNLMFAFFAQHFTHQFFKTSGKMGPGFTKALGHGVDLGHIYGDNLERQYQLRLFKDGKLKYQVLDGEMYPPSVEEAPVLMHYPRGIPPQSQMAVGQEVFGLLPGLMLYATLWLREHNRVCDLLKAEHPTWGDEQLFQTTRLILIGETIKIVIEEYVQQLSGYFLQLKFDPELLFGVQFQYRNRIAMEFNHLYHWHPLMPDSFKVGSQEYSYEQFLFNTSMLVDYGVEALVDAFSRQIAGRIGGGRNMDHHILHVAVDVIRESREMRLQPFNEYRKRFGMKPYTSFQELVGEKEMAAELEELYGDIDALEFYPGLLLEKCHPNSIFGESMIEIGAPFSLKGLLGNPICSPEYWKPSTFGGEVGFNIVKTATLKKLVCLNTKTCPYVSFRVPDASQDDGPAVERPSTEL

## CCCCCCCC/C=C\CCCCCCC(OC)C(=O)O (stereo not drawn) [MOOD, α-Methoxy-cis-Δ9-octadecenoic]
[1]
  inhibition of COX-1 activity (% of control): more significant effect
[2]
  tumour volume (prevention of tumour development): more significant effect
[3]
  Final weight: 263 ± 22* g
cyclooxygenase-2 (COX-2)
  cellular concentration of COX-2 (% of control): more significant effect

## CCCCCCCC/C=C\CCCCCCC(O)C(=O)[O-].[Na+] (centres unmarked) [Na-OHOD]
[4]
  volume of tumours (percent compared to control): significant reductions in the size of tumours
[4]; p<0.05
  potency on tumour volume compared with the free fatty acid OHOD: significantly more potent

## CCCCCCCC/C=C\CCCCCCC(O)C(=O)O (stereo not drawn) [OHOD, α-Hydroxy-cis-Δ9-octadecenoic]
[1]
  inhibition of COX-1 activity (% of control): more significant effect
[2]
  tumour volume (prevention of tumour development): more significant effect
[4]
  volume of tumours (percent compared to control): significant reductions in the size of tumours
[3]
  Final weight: 284 ± 13* g
cyclooxygenase-2 (COX-2)
  cellular concentration of COX-2 (% of control): more significant effect
